Experiments:
[1] = tested on: Salmonella typhimurium TA100; assay: Ames test (reverse mutation test), pre-incubation method, strain TA100; type: cell-based
Protocol: (§1) Ames Test (Reverse Mutation Test)
(§2) Metabolites 1 to 3 and Metabolites A to E were each tested herein. The purpose of this test is to evaluate the potential of each metabolite to induce reverse mutations in the standard strains of Salmonella typhimurium (TA98, TA1537, TA100, and TA1535) and Escherichia coli (WP2uvrA), in either the presence or absence of a rat liver metabolic activation system (S9 mix).
(§3) The solvent used herein was dimethyl sulfoxide (DMSO, 100 μL/plate).
(§4) The test was performed by the pre-incubation method with or without S9 mix. When the test was performed without S9 mix, sodium phosphate buffer solution (pH 7.4) was added.
(§5) 0.5 mL of S9 mix or 0.5 mL of 0.1 mol/L sodium phosphate buffer solution (pH 7.4), and 0.1 mL of the bacterial culture solution were added to a test tube containing 0.1 mL of the negative control formulation (DMSO alone), the metabolite, or the positive control formulation. The mixtures were pre-incubated at 37° C. for 20 minutes while shaking. After the pre-incubation period, 2 mL of top agar were added and the mixtures were vortex-mixed and seeded onto plates. Two plates per treatment were used. Each plate was incubated at 37±1° C. for 48 hours or more and the revertant colonies were counted. The mean number of revertant colonies for each treatment plate was then calculated. The presence or absence of growth inhibition due to any antibacterial effect of the test article and precipitation of the test article was observed grossly or under a stereomicroscope. […] Evaluation was based on mean values with no statistical comparisons being used.

[2] = tested on: Salmonella typhimurium TA1535; assay: Ames test (reverse mutation test), pre-incubation method, strain TA1535; type: cell-based
Protocol: as §1, §2, §3, §4, §5

[3] = tested on: Salmonella typhimurium TA1537; assay: Ames test (reverse mutation test), pre-incubation method, strain TA1537; type: cell-based
Protocol: as §1, §2, §3, §4, §5

Escherichia coli WP2uvrA = assay: Ames test (reverse mutation test), pre-incubation method, strain WP2uvrA; type: cell-based
Text: as §1
Two plates per treatment were used.

[4] = tested on: Salmonella typhimurium TA98; assay: Ames test (reverse mutation test), pre-incubation method, strain TA98
Protocol: as §1, §2, §3, §4, §5

SMILES: CC(C)(Oc1cc(F)cc(-c2cc(N)nn2-c2cnc(C(F)(F)F)nc2)c1)C(F)(F)F [Metabolite 1]
- Number of revertant colonies TA100 ([1]; S9 mix +, dose 6.9 μg/plate): 132
- Number of revertant colonies TA100 ([1]; S9 mix +, dose 21 μg/plate): 132
- Number of revertant colonies TA100 ([1]; S9 mix +, dose 62 μg/plate): 113
- Number of revertant colonies TA100 ([1]; S9 mix +, dose 185 μg/plate): 108
- Number of revertant colonies TA100 ([1]; S9 mix +, dose 556 μg/plate): 128
- Number of revertant colonies TA100 ([1]; S9 mix +, dose 1667 μg/plate): 131
- Number of revertant colonies TA100 ([1]; S9 mix +, dose 5000 μg/plate): 121
- Number of revertant colonies TA100 ([1]; S9 mix −, dose 6.9 μg/plate): 89
- Number of revertant colonies TA100 ([1]; S9 mix −, dose 21 μg/plate): 87
- Number of revertant colonies TA100 ([1]; S9 mix −, dose 62 μg/plate): 87
- Number of revertant colonies TA100 ([1]; S9 mix −, dose 185 μg/plate): 89
- Number of revertant colonies TA100 ([1]; S9 mix −, dose 556 μg/plate): 80
- Number of revertant colonies TA100 ([1]; S9 mix −, dose 1667 μg/plate): 69
- Number of revertant colonies TA100 ([1]; S9 mix −, dose 5000 μg/plate): 47
- Number of revertant colonies TA1535 ([2]; S9 mix +, dose 6.9 μg/plate): 10
- Number of revertant colonies TA1535 ([2]; S9 mix +, dose 21 μg/plate): 8
- Number of revertant colonies TA1535 ([2]; S9 mix +, dose 62 μg/plate): 9
- Number of revertant colonies TA1535 ([2]; S9 mix +, dose 185 μg/plate): 10
- Number of revertant colonies TA1535 ([2]; S9 mix +, dose 556 μg/plate): 9
- Number of revertant colonies TA1535 ([2]; S9 mix +, dose 1667 μg/plate): 10
- Number of revertant colonies TA1535 ([2]; S9 mix +, dose 5000 μg/plate): 7
- Number of revertant colonies TA1535 ([2]; S9 mix −, dose 6.9 μg/plate): 11
- Number of revertant colonies TA1535 ([2]; S9 mix −, dose 21 μg/plate): 10
- Number of revertant colonies TA1535 ([2]; S9 mix −, dose 62 μg/plate): 9
- Number of revertant colonies TA1535 ([2]; S9 mix −, dose 185 μg/plate): 7
- Number of revertant colonies TA1535 ([2]; S9 mix −, dose 556 μg/plate): 9
- Number of revertant colonies TA1535 ([2]; S9 mix −, dose 1667 μg/plate): 5
- Number of revertant colonies TA1535 ([2]; S9 mix −, dose 5000 μg/plate): 7
- Number of revertant colonies TA1537 ([3]; S9 mix +, dose 6.9 μg/plate): 13
- Number of revertant colonies TA1537 ([3]; S9 mix +, dose 21 μg/plate): 12
- Number of revertant colonies TA1537 ([3]; S9 mix +, dose 62 μg/plate): 13
- Number of revertant colonies TA1537 ([3]; S9 mix +, dose 185 μg/plate): 13
- Number of revertant colonies TA1537 ([3]; S9 mix +, dose 556 μg/plate): 10
- Number of revertant colonies TA1537 ([3]; S9 mix +, dose 1667 μg/plate): 9
- Number of revertant colonies TA1537 ([3]; S9 mix +, dose 5000 μg/plate): 4
- Number of revertant colonies TA1537 ([3]; S9 mix −, dose 6.9 μg/plate): 8
- Number of revertant colonies TA1537 ([3]; S9 mix −, dose 21 μg/plate): 8
- Number of revertant colonies TA1537 ([3]; S9 mix −, dose 62 μg/plate): 8
- Number of revertant colonies TA1537 ([3]; S9 mix −, dose 185 μg/plate): 9
- Number of revertant colonies TA1537 ([3]; S9 mix −, dose 556 μg/plate): 9
- Number of revertant colonies TA1537 ([3]; S9 mix −, dose 1667 μg/plate): 5
- Number of revertant colonies TA1537 ([3]; S9 mix −, dose 5000 μg/plate): 3
- Number of revertant colonies WP2uvrA (Escherichia coli WP2uvrA; S9 mix +, dose 6.9 μg/plate): 18
- Number of revertant colonies WP2uvrA (Escherichia coli WP2uvrA; S9 mix +, dose 21 μg/plate): 20
- Number of revertant colonies WP2uvrA (Escherichia coli WP2uvrA; S9 mix +, dose 62 μg/plate): 18
- Number of revertant colonies WP2uvrA (Escherichia coli WP2uvrA; S9 mix +, dose 185 μg/plate): 16
- Number of revertant colonies WP2uvrA (Escherichia coli WP2uvrA; S9 mix +, dose 556 μg/plate): 18
- Number of revertant colonies WP2uvrA (Escherichia coli WP2uvrA; S9 mix +, dose 1667 μg/plate): 14
- Number of revertant colonies WP2uvrA (Escherichia coli WP2uvrA; S9 mix +, dose 5000 μg/plate): 11
- Number of revertant colonies WP2uvrA (Escherichia coli WP2uvrA; S9 mix −, dose 6.9 μg/plate): 17
- Number of revertant colonies WP2uvrA (Escherichia coli WP2uvrA; S9 mix −, dose 21 μg/plate): 19
- Number of revertant colonies WP2uvrA (Escherichia coli WP2uvrA; S9 mix −, dose 62 μg/plate): 16
- Number of revertant colonies WP2uvrA (Escherichia coli WP2uvrA; S9 mix −, dose 185 μg/plate): 17
- Number of revertant colonies WP2uvrA (Escherichia coli WP2uvrA; S9 mix −, dose 556 μg/plate): 18
- Number of revertant colonies WP2uvrA (Escherichia coli WP2uvrA; S9 mix −, dose 1667 μg/plate): 15
- Number of revertant colonies WP2uvrA (Escherichia coli WP2uvrA; S9 mix −, dose 5000 μg/plate): 9
- Number of revertant colonies TA98 ([4]; S9 mix +, dose 185 μg/plate): 40
- Number of revertant colonies TA98 ([4]; S9 mix −, dose 21 μg/plate): 32

Reference: US10988462B2, “Pyrazole compounds substituted with heteroaryl and pharmaceutical use thereof” (Japan Tobacco Inc., priority 2018, dated 2021)
